In paper PMC9709406 (Frontiers in Pharmacology, 2022):
Read-outs that look alike come from different tables or passages of the source.

How the values were obtained:
KYSE70 cells = assay: MTT assay, KYSE70; format: cell-based, human
How it was run: (§1)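 Cells seeded at 2,200–2,500/well in RPMI-1640 with 10% FBS; taxol-resistant lines maintained in 100 nm/L paclitaxel. Compounds at 0–50 μM added next day (0.1% DMSO control), five replicate wells, 48 h exposure. Viability by MTT, absorbance 490 nm.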

KYSE450 cells = assay: Annexin V/PI flow cytometry for apoptosis, KYSE450; format: cell-based, human; settings: 48 h
Procedure: Cell-apoptosis analysis was carried out by flow cytometry using the Annexin V/PI apoptosis methods. […] Cells were harvested and incubated with 250 μL of 1 × Annexin V binding buffer containing 5 μL PI and 5 μL FITC Annexin V (final concentration 1.8 μg/ml, Biolegend (cat: 640945) for 15 min at room temperature in dark. 200 µL of 1 × binding buffer was added for flow cytometry analysis (BD FACSCalibur™ Flow Cytometer).

H1650TR cells = assay: MTT assay, taxol-resistant H1650TR; format: cell-based; settings: Homo sapiens, NCI-H1650, 48 h, value in parentheses in H1650 column
Text: (§2) The human cancer cells (H1650, H1975, KYSE70, KYSE410 and KYSE450) were purchased from the Type Culture Collection of the Chinese Academy of Sciences (Shanghai, China). The human immortalized normal esophageal epithelial cell line SHEE was donated by Dr. Enmin Li from the Laboratory of Tumor Pathology (Shantou University Medical College, Shantou, Guangdong, China). Drug-resistant cells (H1650TR, H1975OR, KYSE70TR, KYSE410TR and KYSE450TR) were induced by China-US (Henan) Hormel Cancer Institute. The cellswere cultured in RPMI-1640 complete growth medium containing 100 U/mL penicillin-streptomycin and 10% FBS. Based on the above medium formula, 100 nm/L paclitaxel was added in taxol-resistant cells, 100 nm/L gefitinib was added in gefitinib-resistant cells. The cells were incubated at 37 °C in an atmosphere containing 5% of CO2. The compounds were dissolved in DMSO to make a 50 mM stock solution and were diluted to the concentration of working solutions with complete growth medium before administration.
(§3) Cells were seeded in 96-well plates with 2,200–2,500 cells/well in100 μL. One day after seeding, test compounds with the concentration between 0 and 50 μM were added with 0.1% DMSO as control. Five multiple wells for each concentration. After 48 h, MTT was added and incubated in the plate for 1–4 h in the incubator. The absorbance at 490 nm was measured using a microplate reader (Thermo).

H1975OR cells = assay: MTT assay, osimertinib-resistant H1975OR; format: cell-based; settings: Homo sapiens, NCI-H1975, 48 h, osimertinib-resistant H1975OR, value in parentheses in H1975 column, read-out: IC50 48 h H1975OR (data in parentheses) (converted)
Text: as §2
as §3, with “After 48 h, MTT was added and incubated in the plate for 1–4 h in the incubator.” left out

KYSE450TR cells = assay: MTT assay, taxol-resistant KYSE450TR; format: cell-based, human; settings: for blank-corrected absorbance 490 nm relative to control (fraction) / inhibition (1 minus fraction of control): 450TR; for IC50: Homo sapiens, MTT
Text: as §2
as §3, with “After 48 h, MTT was added and incubated in the plate for 1–4 h in the incubator.” left out

H1650 cells = assay: MTT assay for cell proliferation and cytotoxicity, H1650; format: cell-based; settings: Homo sapiens, NCI-H1650, 48 h, H1650, n = 5
How it was run: as §1

[1] = tested on: KYSE450 cell-derived xenograft; assay: In vivo cell-derived xenograft (CDX) mouse model; design: species or system nu/nu nude mice
Procedure: Mice were housed under specific pathogen-free conditions. All animal experiments were approved by the Bioethics Committee of Zhengzhou University and followed the guidelines set by the Institutional Animal Care and Use Committee (CUHCI2019002, CUHCI2021001, and CUHCI2021005). To generate the cell-derived xenograft (CDX) mouse model, nu/nu nude mice (Vital River Labs., Beijing, China) were subcutaneously injected with 5 × 10^6 cells (KYSE450). […] Tumor volume was calculated as follows: length × width × height × 0.5. Tumor size and mice weight were measured every 2–3 days. Compounds were administered for 15 days. The tumors were extracted for weighting, immunohistochemistry and immunofluorescence studies.
Frozen sections were washed three times with PBS and incubated overnight at 4°C with Ki-67 antibody. The next day, sections were washed three times and incubated with secondary antibody in PBS. After several washes, slides were counterstained with DAPI (Solarbio). The sections were mounted on microscope and imaged using fluorescent microscopy (Nikon, Tokyo, Japan). Image-Pro Plus 6.0 was used to analyze the fluorescence intensity.
Histological sections were dewaxed, antigens were repaired and sealed with serum in sequence. Next, histological sections were incubated overnight with diluted primary antibodies (1 : 500 dilution), and the control specimens were treated with PBS. The sections were washed 3 times with PBS. Secondary antibody was added and the system was then placed at 37 °C for half an hour. The systems were washed 3 times with PBS. Color developing agent was added. After washing with water, the system was soaked in hematoxylin for 0.5 min for dyeing. The re-dyed slides were washed with water, and then dehydrated. Neutral gums were dropped on the side of the tissue. The slices were then covered with cover glass, sealed and placed in a ventilator for drying. Immunohistochemical staining analysis was then carried out with Image-Pro Plus 6.0.

KYSE410TR cells = assay: MTT assay, taxol-resistant KYSE410TR; format: cell-based, human; settings: for blank-corrected absorbance 490 nm relative to control (fraction) / inhibition (1 minus fraction of control): 410TR
Text: as §2
as §3, with “After 48 h, MTT was added and incubated in the plate for 1–4 h in the incubator.” left out

KYSE410 cells = assay: MTT assay, KYSE410; format: cell-based, human; settings: for IC50: Homo sapiens, KYSE-410
How it was run: as §1

H1975 cells = assay: MTT assay for cell proliferation and cytotoxicity, H1975; format: cell-based, human; settings: Homo sapiens, NCI-H1975, 48 h, MTT, 48 h, H1975, n = 5; read-out: IC50 48 h H1975
How it was run: as §1

[2] = nude mice, 50 mg/kg i.p. every day, 15 days, vs control group and icotinib group

- IC50 (H1650TR cells): 8.43 µM
- IC50 (H1975OR cells): 9.73 µM
Compound: FC(F)(F)c1ccc(-n2cc(-c3cccc(Nc4ncnc5cc6c(cc45)OCCOCCOCCO6)c3)nn2)cc1 [compound 3l]
- IC50 (KYSE70 cells; Homo sapiens, KYSE-70, MTT, 48 h, KYSE70, n = 5): 4.25 ± 0.21 µM
- blank-corrected absorbance 490 nm relative to control (fraction) (KYSE70 cells; KYSE70, concentration 2.25): 0.9298
- inhibition (1 minus fraction of control) (KYSE70 cells; KYSE70, concentration 2.25): 0.07024
- blank-corrected absorbance 490 nm relative to control (fraction) (KYSE70 cells; KYSE70, concentration 4.5): 0.4365
- inhibition (1 minus fraction of control) (KYSE70 cells; KYSE70, concentration 4.5): 0.5635
- blank-corrected absorbance 490 nm relative to control (fraction) (KYSE70 cells; KYSE70, concentration 9): 0.2659
- inhibition (1 minus fraction of control) (KYSE70 cells; KYSE70, concentration 9): 0.7341
- proportion of apoptotic cells (KYSE450 cells; KYSE450, 2 μM): 24.32%
- proportion of apoptotic cells (KYSE450 cells; KYSE450, 4 μM): 39.89%
- blank-corrected absorbance 490 nm relative to control (fraction) (KYSE450TR cells; concentration 4): 0.04737
- inhibition (1 minus fraction of control) (KYSE450TR cells; concentration 4): 0.9526
- blank-corrected absorbance 490 nm relative to control (fraction) (KYSE450TR cells; concentration 8): 0.04791
- inhibition (1 minus fraction of control) (KYSE450TR cells; concentration 8): 0.9521
- blank-corrected absorbance 490 nm relative to control (fraction) (KYSE450TR cells; concentration 16): 0.1075
- inhibition (1 minus fraction of control) (KYSE450TR cells; concentration 16): 0.8925
- IC50 (KYSE450TR cells; 450t (KYSE450TR), 490 nm, read-out: IC50): 2.1 µM
- IC50 (KYSE450TR cells; 48 h, taxol-resistant KYSE450TR, value in parentheses, read-out: IC50 48 h KYSE450TR (data in parentheses) (converted)): 8.59 µM
- IC50 (H1650 cells): 4.4 ± 0.32 µM
- expression of proliferation marker Ki-67 in tumor ([1]; 50 mg/kg i.p., immunofluorescence): decreased significantly
- expression of P-ERK (Tyr202/204) in tumor ([1]; 50 mg/kg i.p., immunohistochemistry): decreased significantly
- ESCC tumor volume [1, 2]: markedly reduced
- average tumor weight [1, 2]: markedly reduced
- blank-corrected absorbance 490 nm relative to control (fraction) (KYSE410TR cells; concentration 4): 0.5568
- inhibition (1 minus fraction of control) (KYSE410TR cells; concentration 4): 0.4432
- blank-corrected absorbance 490 nm relative to control (fraction) (KYSE410TR cells; concentration 8): 0.3771
- inhibition (1 minus fraction of control) (KYSE410TR cells; concentration 8): 0.6229
- blank-corrected absorbance 490 nm relative to control (fraction) (KYSE410TR cells; concentration 16): 0.2345
- inhibition (1 minus fraction of control) (KYSE410TR cells; concentration 16): 0.7655
- IC50 (KYSE410TR cells; Homo sapiens, MTT, 48 h, taxol-resistant KYSE410TR, value in parentheses, read-out: IC50 48 h KYSE410TR (data in parentheses) (converted)): 5.3 µM
- IC50 (KYSE410 cells; KYSE410, MTT, 490 nm, read-out: IC50): 7 µM
- IC50 (KYSE410 cells; MTT, 48 h, KYSE410, n = 5, read-out: IC50 48 h KYSE410): 5.94 ± 0.41 µM
- blank-corrected absorbance 490 nm relative to control (fraction) (KYSE410 cells; KYSE410, concentration 3.5): 0.6286
- inhibition (1 minus fraction of control) (KYSE410 cells; KYSE410, concentration 3.5): 0.3714
- blank-corrected absorbance 490 nm relative to control (fraction) (KYSE410 cells; KYSE410, concentration 7): 0.487
- inhibition (1 minus fraction of control) (KYSE410 cells; KYSE410, concentration 7): 0.513
- blank-corrected absorbance 490 nm relative to control (fraction) (KYSE410 cells; KYSE410, concentration 14): 0.3214
- inhibition (1 minus fraction of control) (KYSE410 cells; KYSE410, concentration 14): 0.6786
- IC50 (H1975 cells): 3.26 ± 0.26 µM
